# Results published in patent publication US5202319A, “Substituted 3-amino-2,3,4,5-tetrahydro-1-aryloxy-3-benzazepines” (Hoechst-Roussel Pharmaceuticals Inc., priority 1991, dated 1993).
# pIC50: −log10 of the molar value. Structures can show the parent of a compound that is named as a salt.
# Tests used:
# [1] = tested on: serotonin (5HT) uptake; assay: 3H-Serotonin Uptake in Rat Whole Brain and Hypothalamic Synaptosomes; type: biochemical; details: 50 nM 3H-5HT, 37° C., 5 minutes, log-probit analysis, read-out: Inhibition of ^3 H-serotonin Uptake IC50
# Description: A. Animals: Male CR Wistar rats (100-125 g).
# 3. […] This is used to dilute the specific activity of radiolabeled 5HT.
# The final desired concentration of ^3 H-5HT in the assay is 50 nM. The dilution factor is 0.8.
# Male Wistar rats are decapitated and the brain rapidly removed. […] Homogenization should be done with 4-5 up and down strokes at medium speeds to minimize synaptosome lysis. […] The supernatant (S1) is decanted and is used for uptake experiments.
# Tubes are incubated at 37° C. under a 95% O2 /5% CO2 atmosphere for 5 minutes. For each assay, 3 tubes are incubated with 20 μl of vehicle at 0° C. in an ice bath. After incubation all tubes are immediately centrifuged at 4000 g for 10 minutes. The supernatant fluid is aspirated and the pellets dissolved by adding 1 ml of solubilizer (Triton X-100+50% EtOH, 1:4 v/v). […] Active uptake is the difference between cpm at 37° C. and 0° C. […] IC50 values are derived from log-probit analysis.
# [2] = tested on: [^3 H]-5HT transport; details: CNS tissue; cited from earlier work
# [3] = tested on: 5HT uptake; details: cited from earlier work
# [4] = tested on: 5HT uptake sites; details: in vitro; cited from earlier work
# [5] = in vivo; cited from earlier work
smiles,measurement,setting,value
"COc1cc2c(cc1OC)C(Oc1ccccc1)CN(N)CC2 (stereo not drawn) [3-Amino-7,8-dimethoxy-1-phenoxy-2,3,4,5-tetrahydro-3-benzazepine maleate]",pIC50,[1],5.67
C[C@@H]1O[C@@H](O[C@H]2C[C@@H](O)[C@]3(CO)[C@H]4[C@H](O)C[C@]5(C)[C@@H](C6=CC(=O)OC6)CC[C@]5(O)[C@@H]4CC[C@]3(O)C2)[C@H](O)[C@H](O)[C@H]1O [ouabain],inhibition of [^3 H]-5HT transport,[2],inhibited
CN(C)C/C=C(/c1ccc(Br)cc1)c1cccnc1 [zimelidine],effects on 5HT uptake,[3],fairly selective effects on 5HT uptake
"NN1CCc2ccccc2C(Oc2ccc(C(F)(F)F)cc2)C1 (stereo not drawn) [3-Amino-2,3,4,5-tetrahydro-1-(4-trifluoromethylphenoxy)-3-benzazepine maleate]",pIC50,[1],5.03
CN(C)CCCN1c2ccccc2CCc2ccccc21 [[^3 H]-imipramine],[^3 H]-imipramine binding,[4],labels 5HT uptake sites
O=c1n(CCCN2CCN(c3cccc(Cl)c3)CC2)nc2ccccn12 [Trazodone],clinical effectiveness,[5],clinically effective antidepressants
